These results are taken from patent US20230075856A1, “CYCLIC SULFAMIDE COMPOUNDS FOR TREATMENT OF HBV” (Assembly Biosciences, Inc., priority 2018, published 2023).

A value given as a limit tells only on which side of the number the result lay.

One assay concerns HBV viral load production from HepAD38 cells. The assay can be described thus: Viral production from HepAD38 cells: viral load in supernatant by qPCR of the HBV core sequence. The settings on record: 5 days incubation, qPCR of supernatant HBV DNA vs DMSO control, read-out: viral load lowering EC50 (Activity). It is filed as cell-based. A digest of the protocol: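 HepAD38 cells seeded at 50,000/well in tetracycline-free medium with 2% FBS, treated with compounds (final top concentration 10 μM) for 5 days at 37 °C. Supernatant HBV DNA quantified by TaqMan qPCR of core sequence against HBV DNA standards, relative to DMSO controls; EC50 by four-parameter logistic fit.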
For orientation: In qPCR the cycle at which signal appears reflects the starting amount.
Broadly, the EC50 is the midpoint of the concentration-response curve. In the case of `CN1C(C(=O)Nc2ccc(F)c(Cl)c2)CC(C(=O)NC2CCN(C(=O)C3CC3)CC2)NS1(=O)=O` (single isomer, unassigned) [Compound 854-ISOMER-B, N3-(3-chloro-4-fluoro-phenyl)-N5-[1-(cyclopropanecarbonyl)-4-piperidyl]-2-methyl-1,1-dioxo-1,2,6-thiadiazinane-3,5-dicarboxamide], the EC50 was in the range of 100 to 10000 nM.
Same read-out and setting: in the case of `CN1C(C(=O)Nc2ccc(F)c(Cl)c2)CC(C(=O)NC2CCN(c3cc(CN4CCCCC4)ccn3)CC2)NS1(=O)=O` (single isomer, unassigned; isomer-b) [Compound 975-ISOMER-B, N3-(3-chloro-4-fluroo-phenyl)-2-methyl-1,1-dioxo-N5-[1-[4-(1-piperidylmethyl)-2-pyridyl]-4-piperidyl]-1,2,6-thiadiazinane-3,5-dicarboxamide] it was 100 to 10000 nM; in that of `CC(C)OC1CCC(NC(=O)C2CC(C(=O)Nc3ccc(F)c(Cl)c3)N(C)S(=O)(=O)N2)CC1` (single isomer, unassigned) [Compound 862-ISOMER-B, N3-(3-chloro-4-fluoro-phenyl)-N5-(4-isopropoxycyclohexyl)-2-methyl-1,1-dioxo-1,2,6-thiadiazinane-3,5-dicarboxamide], below 50 nM; in that of `CN1C(C(=O)Nc2ccc(F)c(Cl)c2)CC(C(=O)NCc2cnc(-c3ccc(OCCCN4CCSCC4)cc3)s2)NS1(=O)=O` (single isomer, unassigned) [Compound 925-ISOMER-B, N3-(3-chloro-4-fluoro-phenyl)-2-methyl-1,1-dioxo-N5-[[2-[4-(3-thiomorpholinopropoxy)phenyl]thiazol-5-yl]methyl]-1,2,6-thiadiazinane-3,5-dicarboxamide], 100 to 10000 nM.
On to `CN1C(C(=O)Nc2ccc(F)c(Cl)c2)CC(C(=O)NC2CCN(c3ccnc(-c4ccccc4)c3)CC2)NS1(=O)=O` (single isomer, unassigned) [1050-ISOMER-B, N3-(3-chloro-4-fluoro-phenyl)-2-methyl-1,1-dioxo-N5-[1-(2-phenyl-4-pyridyl)-4-piperidyl]-1,2,6-thiadiazinane-3,5-dicarboxamide], for which the 50% effective concentration (EC50) was below 50 nM.
`CCN1C(C(=O)Nc2ccc(F)c(Cl)c2)CC(C(=O)NC2CCN(C(=O)OC)CC2)NS1(=O)=O` (single isomer, unassigned) [Compound 890-ISOMER-B, methyl 4-[[5-[(3-chloro-4-fluoro-phenyl)carbamoyl]-6-ethyl-1,1-dioxo-1,2,6-thiadiazinane-3-carbonyl]amino]piperidine-1-carboxylate]: the EC50 was 100 to 10000 nM.

Staying with this assay, now noted: Hepatitis B virus, HePAD38, 120 h, 5 days incubation, qPCR of supernatant HBV DNA vs DMSO control, read-out: viral load lowering EC50 (Activity).
`CN1C(C(=O)Nc2ccc(F)c(Cl)c2)CC(C(=O)NCc2cnc(-c3cccc(Cl)c3)s2)NS1(=O)=O` (single isomer, unassigned) [Compound 913-ISOMER-A, N3-(3-chloro-4-fluoro-phenyl)-N5-[[2-(3-chlorophenyl)thiazol-5-yl]methyl]-2-methyl-1,1-dioxo-1,2,6-thiadiazinane-3,5-dicarboxamide]: the EC50 is 100 to 10000 nM.
Take `CN1C(C(=O)Nc2ccc(F)c(Cl)c2)CC(C(=O)NCc2cnc(Cl)s2)NS1(=O)=O` (single isomer, unassigned) [1199-ISOMER-A, N3-(3-chloro-4-fluoro-phenyl)-N5-[(2-chlorothiazol-5-yl)methyl]-2-methyl-1,1-dioxo-1,2,6-thiadiazinane-3,5-dicarboxamide]: the EC50 is below 50 nM.
Consider `CN1C(C(=O)Nc2ccc(F)c(Cl)c2)CC(C(=O)NCc2ccc(Cl)cc2)NS1(=O)=O` (stereo not drawn) [Compound 729], for which the EC50 is below 50 nM.
As to `Cc1nc(-c2ccccc2F)sc1[C@H](NC(=O)C1CC(C(=O)Nc2ccc(F)c(Cl)c2)N(C)S(=O)(=O)N1)c1ccccc1` (single isomer, unassigned) [1101-ISOMER-A], the EC50 is below 50 nM.
With `CN1C(C(=O)Nc2ccc(F)c(Cl)c2)CC(C(=O)NCc2cc(-c3ccccc3)on2)NS1(=O)=O` (single isomer, unassigned) [1149-ISOMER-A, N3-(3-chloro-4-fluoro-phenyl)-2-methyl-1,1-dioxo-N5-[(5-phenylisoxazol-3-yl)methyl]-1,2,6-thiadiazinane-3,5-dicarboxamide], the EC50 was below 50 nM.
The same measure, in the same setting: under `Cc1ncc(CNC(=O)C2CC(C(=O)Nc3ccc(F)c(Cl)c3)N(CC(F)(F)F)S(=O)(=O)N2)s1` (stereo not drawn) [Compound 891] stands 100 to 10000 nM.
`CN1C(C(=O)Nc2ccc(F)c(Cl)c2)CC(C(=O)NCc2ccccc2-n2ccnc2)NS1(=O)=O` (single isomer, unassigned) [Compound 910-ISOMER-B, N3-(3-chloro-4-fluoro-phenyl)-N5-[(2-imidazol-1-ylphenyl)methyl]-2-methyl-1,1-dioxo-1,2,6-thiadiazinane-3,5-dicarboxamide]: the EC50 was 100 to 10000 nM.
On the same count and under the same terms, under `Cc1nc(-c2ccccc2)sc1CNC(=O)C1CC(C(=O)Nc2ccc(F)c(Cl)c2)N(C)S(=O)(=O)N1` (single isomer, unassigned) [Compound 914-ISOMER-A, N3-(3-chloro-4-fluoro-phenyl)-2-methyl-N5-[(4-methyl-2-phenyl-thiazol-5-yl)methyl]-1,1-dioxo-1,2,6-thiadiazinane-3,5-dicarboxamide] stands below 50 nM; under `COC(=O)N1CCC(NC(=O)C2CC(C(=O)Nc3ccc(F)c(Cl)c3)N(CC(F)(F)F)S(=O)(=O)N2)CC1` (stereo not drawn) [Compound 893], below 50 nM; under `Cc1c(CNC(=O)C2CC(C(=O)Nc3ccc(F)c(Cl)c3)N(C)S(=O)(=O)N2)noc1-c1ccccc1` (single isomer, unassigned) [1150-ISOMER-A, N3-(3-chloro-4-fluoro-phenyl)-2-methyl-N5-[(4-methyl-5-phenyl-isoxazol-3-yl)methyl]-1,1-dioxo-1,2,6-thiadiazinane-3,5-dicarboxamide], below 50 nM.
With `COc1ccc(CNC(=O)C2CC(C(=O)Nc3ccc(F)c(Cl)c3)N(C)S(=O)(=O)N2)cc1` (single isomer, unassigned) [Compound 717-ISOMER-A, N3-(3-chloro-4-fluoro-phenyl)-N5-[(4-methoxyphenyl)methyl]-2-methyl-1,1-dioxo-1,2,6-thiadiazinane-3,5-dicarboxamide], the EC50 was below 50 nM.
Still for that read-out and setting: under `Cc1nc(Cl)sc1CNC(=O)C1CC(C(=O)Nc2ccc(F)c(Cl)c2)N(C)S(=O)(=O)N1` (stereo not drawn) [Compound 1031] stands below 50 nM.
For the compound `CC(=O)N1CCC(NC(=O)C2CC(C(=O)Nc3ccc(F)c(Cl)c3)N(C)S(=O)(=O)N2)CC1` (stereo not drawn) [Compound 851], the EC50 lay in the range of 100 to 10000 nM.
The same measure, in the same setting: under `Cc1cn(-c2ccc(F)cc2F)nc1CNC(=O)C1CC(C(=O)Nc2ccc(F)c(Cl)c2)N(C)S(=O)(=O)N1` (stereo not drawn) [Compound 1144] stands below 50 nM; under `CN1C(C(=O)Nc2ccc(F)c(Cl)c2)CC(C(=O)NCc2ccccc2Br)NS1(=O)=O` (stereo not drawn) [Compound 821], below 50 nM; under `CN1C(C(=O)Nc2ccc(F)c(Cl)c2)CC(C(=O)Nc2cccnc2)NS1(=O)=O` (stereo not drawn) [Compound 708], 100 to 10000 nM.
`CN1C(C(=O)Nc2ccc(F)c(Cl)c2)CC(C(=O)NCc2cnc(-c3ccc(O)cc3)s2)NS1(=O)=O` (single isomer, unassigned) [Compound 924-ISOMER-B, N3-(3-chloro-4-fluoro-phenyl)-N5-[[2-(4-hydroxyphenyl)thiazol-5-yl]methyl]-2-methyl-1,1-dioxo-1,2,6-thiadiazinane-3,5-dicarboxamide]: the EC50 was below 50 nM.
On to `CN1C(C(=O)Nc2ccc(F)c(Cl)c2)CC(C(=O)NC2CCN(c3ccnc(Br)c3)CC2)NS1(=O)=O` (stereo not drawn) [Compound 1036], for which the EC50 is below 50 nM.
Consider `CN1C(C(=O)Nc2ccc(F)c(Cl)c2)CC(C(=O)NCc2cnc(-c3ccc(O)cc3Cl)s2)NS1(=O)=O` (stereo not drawn) [Compound 1028], for which the EC50 is below 50 nM.
On the same count and under the same terms, in the case of `Cc1nc(-c2ccccn2)sc1CNC(=O)C1CC(C(=O)Nc2ccc(F)c(Cl)c2)N(C)S(=O)(=O)N1` (single isomer, unassigned) [1065-ISOMER-A, N3-(3-chloro-4-fluoro-phenyl)-2-methyl-N5-[[4-methyl-2-(2-pyridyl)thiazol-5-yl]methyl]-1,1-dioxo-1,2,6-thiadiazinane-3,5-dicarboxamide] it was 100 to 10000 nM; in that of `Cc1c(CNC(=O)C2CC(C(=O)Nc3ccc(F)c(C#N)c3)N(C)S(=O)(=O)N2)cnn1C` (stereo not drawn) [Compound 838], 100 to 10000 nM; in that of `CN1C(C(=O)Nc2ccc(F)c(Cl)c2)CC(C(=O)N[C@H]2CCN(c3ccnc(Cl)c3)C2)NS1(=O)=O` (stereo partly drawn) [Compound 1055-S], below 50 nM.
With `CN1C(C(=O)Nc2ccc(F)c(Cl)c2)CC(C(=O)NCc2ccccc2C(F)(F)F)NS1(=O)=O` (stereo not drawn) [Compound 818], the EC50 was below 50 nM.
In the case of `CN1C(C(=O)Nc2ccc(F)c(Cl)c2)CC(C(=O)N[C@H]2CCN(c3ccnc(Cl)c3)C2)NS1(=O)=O` (single isomer, unassigned) [1055-S-ISOMER-A], the EC50 lay in the range of 100 to 10000 nM.
Still for that read-out and setting: in the case of `CN1C(C(=O)Nc2ccc(F)c(Cl)c2)CC(C(=O)NC(c2ccccc2)c2cnc(-c3ccccc3)s2)NS1(=O)=O` (single isomer, unassigned) [1067-ISOMER-A, N3-(3-chloro-4-fluoro-phenyl)-2-methyl-1,1-dioxo-N5-[phenyl-(2-phenylthiazol-5-yl)methyl]-1,2,6-thiadiazinane-3,5-dicarboxamide] it was below 50 nM.
The same measure, in the same setting: in the case of `Cc1nc(-c2ccccc2Cl)sc1CNC(=O)C1CC(C(=O)Nc2ccc(F)c(Cl)c2)N(C)S(=O)(=O)N1` (single isomer, unassigned) [1015-ISOMER-A, N3-(3-Chloro-4-fluoro-phenyl)-N5-[[2-(2-chlorophenyl)-4-methyl-thiazol-5-yl]methyl]-2-methyl-1,1-dioxo-1,2,6-thiadiazinane-3,5-dicarboxamide] it was below 50 nM; in that of `CN1C(C(=O)Nc2ccc(F)c(Cl)c2)CC(C(=O)Nc2ccc3c(c2)OCCO3)NS1(=O)=O` (stereo not drawn) [Compound 734], 50 to 100 nM.
